Tests used:
[1] = test system: PC9 cell line; test: Cellular assay for anti-proliferative activity in combination with a second therapeutic agent (Cell Titer Glo), PC9; assay type: cell-based, human; conditions: in combination with AZD9291, call from Combination Index
Method: Cells were plated in […] of media in 384 well plates at 1,000 cells per well (A431, PC9, and NCI-H1650 cell lines), 1,500 cells per well (NCI-H1975) or 2,000 cells per well ([…]). The plates were incubated for 24 hrs at 37° C., 6% CO2. The test compounds (see Table 38 below) were diluted serially, and 62.5 nL of each compound solution (or DMSO, if it is a single agent experiment) is added so the total added to the cells is 125 nL. Cell plates were incubated for 72 hrs at 37° C., 6% CO2. Cell Titer Glo reagent (Promega) was added. The plates were then incubated for 10 minutes at room temperature before luminescence was read on a plate reader such as the Pherastar Plus, Pherastar FS, or LEADSeeker imaging system.
Bliss antagonism was defined similarly.
Bliss dependence was defined as the percent cell survival at a certain dose combination divided by the percent cell survival predicted by Bliss independence. More specifically, the Bliss dependence is vAB/(vA*vB), where vAB is the viability with drug A and drug B added, while vA and vB are the viabilities with each drug alone. […]
Another way to evaluate additivity is through consideration of Loewe additivity. […] For Bliss independence, the boundary between additivity and synergy must be measured. […]
Synergy can also be measured by nonlinear blending synergy. […]

[2] = biological target: Human VPS34 (Homo sapiens (Human), UniProt Q8NEB9); test: Human VPS34 enzyme assay (Adapta TR-FRET); assay type: biochemical; conditions: compound concentration 1.11 μM; read-out: Percent Inhibition
Chain of Human VPS34 (Q8NEB9 whole entry): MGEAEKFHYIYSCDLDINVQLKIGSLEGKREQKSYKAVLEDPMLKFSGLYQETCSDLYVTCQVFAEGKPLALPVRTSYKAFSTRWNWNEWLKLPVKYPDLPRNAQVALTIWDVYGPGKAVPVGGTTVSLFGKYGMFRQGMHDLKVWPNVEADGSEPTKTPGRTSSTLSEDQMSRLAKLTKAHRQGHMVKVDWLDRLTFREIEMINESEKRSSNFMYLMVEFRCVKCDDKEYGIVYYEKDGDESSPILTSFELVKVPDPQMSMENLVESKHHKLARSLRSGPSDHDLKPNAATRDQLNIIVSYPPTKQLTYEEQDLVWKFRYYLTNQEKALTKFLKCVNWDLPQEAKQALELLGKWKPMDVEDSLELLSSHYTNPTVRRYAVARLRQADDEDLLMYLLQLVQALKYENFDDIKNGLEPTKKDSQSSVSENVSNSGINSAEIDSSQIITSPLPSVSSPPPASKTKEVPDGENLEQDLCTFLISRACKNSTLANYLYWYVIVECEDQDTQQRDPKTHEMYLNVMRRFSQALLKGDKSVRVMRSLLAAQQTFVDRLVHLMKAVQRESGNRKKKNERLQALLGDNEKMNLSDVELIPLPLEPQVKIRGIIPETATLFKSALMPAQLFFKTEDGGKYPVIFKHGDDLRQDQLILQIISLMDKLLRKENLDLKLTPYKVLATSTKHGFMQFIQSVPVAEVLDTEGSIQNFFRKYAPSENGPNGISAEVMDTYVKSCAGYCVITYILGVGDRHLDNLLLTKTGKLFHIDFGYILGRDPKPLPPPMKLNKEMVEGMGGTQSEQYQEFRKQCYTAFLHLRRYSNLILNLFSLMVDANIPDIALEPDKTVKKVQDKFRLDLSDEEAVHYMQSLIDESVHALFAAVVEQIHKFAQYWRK

inhibition at 1.11 µM [2]: > 99%
SMILES: Cc1c(-c2ccnc(NC(=O)C3CC3)c2)cnc(Cl)c1NS(=O)(=O)c1ccc(F)cc1F [Compound I-308, N-(6-chloro-5-{[(2,4-difluorophenyl)sulfonyl]amino}-4-methyl-3,4′-bipyridin-2′-yl)cyclopropane carboxamide]
Meaning [1]: SubAdditivity

Source: patent publication US9802960B2 (MILLENNIUM PHARMACEUTICALS, INC., priority 2014, dated 2017)
